From patent publication US10172963B2, “Method of binding a CSE1L tumor marker in a tumor of an animal” (priority 2011, dated 2019)

Assays:
Type in all cases: cell-based
B16-Ras cells [1] = assay: Gelatin zymography assay of microvesicular MMP-2; details: 50 μM PD98059, or stable CSE1L shRNA transfection; microvesicles from conditioned media of serum-starved cells
Description: Microvesicles harvested from cell number-standardized conditioned media were resolved using 10% SDS-PAGE containing 1 mg/ml gelatin. The gel was washed twice with 2.5% Triton X-100 for 30 min to remove SDS, and subsequently incubated in buffer containing 50 mM Tris-HCl (pH 7.6), 200 mM NaCl, and 10 mM CaCl2 at 37° C. for 24 h. The gel was stained with Comassie blue R-250 (0.125% Comassie blue R-250, 50% methanol, 10% acetic acid) for 30 min and destained with destaining solution (20% methanol, 10% acetic acid, 70% ddH2O) until the clear bands were visualized.
(A) Gelatin zymographic activities of MMP-2 in microvesicles harvested form the cell number-standardized conditioned media of serum-starved B16-dEV, B16-Ras, B16-CSE1L, and B16-Ras/anti-CSE1L cells treated with or without DMSO or 50 μM PD98059 for 48 h as indicated. (B) The in vitro invasion abilities of B16-dEV, B16-Ras, B16-CSE1L, and B16-Ras/anti-CSE1L cells analyzed by Matrigel-based invasion assays. The mean±SD numbers of invasive cells were 109.4±12.6, 406.8±23.9, 311.25±32.4, and 46.75±8.7 cells per field for B16-dEV, B16-CSE1L, B16-Ras, and B16-Ras/anti-CSE1L cells, respectively.

B16-Ras cells [2] = assay: Threonine phosphorylated CSE1L by immunoprecipitation and immunoblotting; details: 50 μM, 24 h
Description: Cells grown on plastic dishes were washed with PBS and incubated in immunoprecipitation lysis buffer [10 mM Tris-HCl (pH 7.4), 10 mM EDTA, 0.4% deoxycholic acid, 0.5% Triton X-100, 1 mM phenylmethylsulfonyl fluoride, 10 μg/ml aprotinin, 5 μg/ml leupeptin, 25 mM β-glycerophosphate, 5 mM sodium orthovanadate, and 5 mM sodium fluoride] at 4° C. for 20 min. Cells were scraped and disrupted by pipetting. The cell lysate was cleared of insoluble materials by centrifugation at 12,000 g for 10 min at 4° C., and the protein concentrations were determined with a BCA protein assay kit (Pierce). […]
(A) Levels of cellular threonine phosphorylated CSE1L in B16-dEV cells and B16-Ras cells treated with DMSO or 50 μM PD98059 for 24 h were analyzed by immunoprecipitation with anti-CSE1L antibodies and immunoblotting with HRP-conjugated anti-phosphothreonine antibodies. […] (B) Levels of secretory threonine phosphorylated CSE1L in cell number-standardized conditioned media harvested from serum-starved B16-dEV cells and B16-Ras cells treated with DMSO or 50 μM PD98059 for 24 h were analyzed by immunoprecipitation with anti-CSE1L antibodies and immunoblotting with HRP-conjugated anti-phosphothreonine antibodies. […] (D) The levels of CSE1L in the pool of cancer sera and normal sera were analyzed by immunoblotting with anti-CSE1L antibodies (clone 24).

B16-Ras cells [3] = assay: Levels of microvesicular MMP-2 in microvesicles from conditioned media (immunoblot); details: 50 μM, 48 h, serum-starved B16-Ras cells
Description: (§1) Cells were washed with phosphate-buffered saline (PBS) and lysed in ice-cold radioimmunoprecipitation assay (RIPA) buffer [25 Mm Tris-HCl (pH 7.2), 0.1% SDS, 0.1% Triton X-100, 1% sodium deoxycholate, 150 mM NaCl, 1 mM EDTA, 1 mM sodium orthovanadate, 1 mM phenylmethylsulfonyl fluoride, 10 μg/ml aprotinin, 5 μg/ml leupeptin, 25 mM β-glycerophosphate, 5 mM sodium orthovanadate, and 5 mM sodium fluoride]. The protein concentrations were determined with a BCA protein assay kit (Pierce, Rockford, Ill., USA). Fifty micrograms of each protein sample was loaded onto SDS-polyacrylamide gel. Proteins were transferred to nitrocellulose membranes (Amersham Pharmacia, Buckinghamshire, UK). The membrane was blocked in blocking buffer [1% bovine serum albumin (BSA), 50 mM Tris-HCl (pH 7.6), 150 mM NaCl, and 0.1% Tween-20] at room temperature for 1 h. The blots were then incubated with primary antibodies at 4° C. overnight followed by incubation with secondary antibodies conjugated to horseradish peroxidase for 1 h. The levels of protein were detected by Forte Western HRP Substrate (Millipore Corp., Billerica, Mass., USA) according to the manufacturer's instructions.
Microvesicles were prepared from conditioned media or sera by size exclusion chromatography and ultracentrifugation. […] Fractions (1 ml) were collected, and the protein content was monitored by measuring absorbance at 280 nm. […]

B16-Ras cells [4] = assay: CSE1L in cell lysates and conditioned media by immunoblotting; details: 50 μM, 24 h
Description: as §1, with “The membrane was blocked in blocking buffer [1% bovine serum albumin (BSA), 50 mM Tris-HCl (pH 7.6), 150 mM NaCl, and 0.1% Tween-20] at room temperature for 1 h. The blots were then incubated with primary antibodies at 4° C. overnight followed by incubation with secondary antibodies conjugated to horseradish peroxidase for 1 h.” left out
For Immunoblotting with biotin-conjugated antibodies, the biotin-conjugated antibody was prepared by biotinylating anti-CSE1L antibodies using the Biotin Labeling Kit-NH2 kit according to the manufacturer's protocol (Dojindo Laboratories, Kumamoto, Japan). The Immunoblot was then reacted with horseradish peroxidase (HRP)-conjugated streptavidin and the levels of protein were detected by Forte Western HRP Substrate. […]

[5] = conditioned media of serum-starved B16-Ras cells

COc1cccc(-c2cc(=O)c3ccccc3o2)c1N [PD98059]
Effect on v-H-ras-induced increase in zymographic activity of microvesicular MMP-2 (B16-Ras cells [1]): attenuated the v-H-ras-induced increase in the zymographic activity of microvesicular MMP-2
Effect on v-H-ras-increased threonine phosphorylation of cellular CSE1L (B16-Ras cells [2]; cell lysates of B16-Ras cells): inhibited v-H-ras-increased threonine phosphorylation in CSE1L
Effect on v-H-ras-increased secretion of threonine phosphorylated CSE1L (B16-Ras cells [2]; [5]): inhibited v-H-ras-increased secretion of threonine phosphorylated CSE1L
Effect on v-H-ras-induced increase in microvesicular MMP-2 (B16-Ras cells [3]): attenuated v-H-ras-induced increase in MMP-2 in microvesicles
Effect on CSE1L expression in cells (B16-Ras cells [4]; cell lysates): did not obviously affect CSE1L expression in cells
Effect on v-H-ras-induced increase in CSE1L secretion (B16-Ras cells [4]; [5]): attenuated v-H-ras-induced increase in CSE1L secretion
